Earlier results in patent publication US20220226447A1, “ANTI-ABETA VACCINE THERAPY” (AC Immune SA, priority 2019, published 2022).

Conditions: human, in vivo

AN1792: full-length Aβ1-42 vaccine
antibody response: induced an antibody response | rate of cognitive decline versus placebo-treated patients: slower rate of cognitive decline | treated patients who developed meningoencephalitis: 6%
